ChEMBL document CHEMBL5365512, “Hetero-tricyclic Compounds as KRAS Inhibitors for Treating Cancer” (ACS Med Chem Lett, 2023)

How the values were obtained:
GTPase KRas [1] = molecular target: T1, GTPase KRas (Homo sapiens, UniProt P01116, G12D); assay: Inhibition of KRAS G12D mutant (unknown origin) assessed as inhibition of SOS1 mediated nucleotide exchange of bodipy-GDP for GppNHp incubated for 4 hrs by fluorescence based analysis
GTPase KRas [2] = molecular target: GTPase KRas (Homo sapiens, UniProt P01116, G12V); assay: Inhibition of KRAS G12V mutant (unknown origin) assessed as inhibition of SOS1 mediated nucleotide exchange of bodipy-GDP for GppNHp incubated for 3 hrs by fluorescence based analysis
GTPase KRas [3] = molecular target: T1, GTPase KRas; assay: Inhibition of KRAS G12D mutant in human HPAF-II cells assessed as reduction in ERK phosphorylation by Western blot analysis; assay type: cell-based

T1 sequence (P01116 whole entry G12D): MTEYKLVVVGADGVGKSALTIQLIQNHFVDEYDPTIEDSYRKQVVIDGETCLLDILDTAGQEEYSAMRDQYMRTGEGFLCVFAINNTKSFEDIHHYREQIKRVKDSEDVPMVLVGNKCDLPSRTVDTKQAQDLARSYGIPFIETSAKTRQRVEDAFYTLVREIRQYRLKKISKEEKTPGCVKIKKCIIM
GTPase KRas (Homo sapiens, UniProt P01116, G12V), sequence (P01116 whole entry G12V): as the sequence (P01116 whole entry G12D) above, with D12V counted along it

Q: What does the source list for `C[C@H](Oc1nc2c(F)c(-c3cc(O)cc4ccc(F)cc34)c(CCC#N)cc2c2c1NC(=O)CN2C1C2CNC1C2)[C@@H]1CCCN1C` (some centres not stated)?
A: IC50 (GTPase KRas [1]): ≤ 100 nM; IC50 (GTPase KRas [2]): ≤ 100 nM; IC50 (GTPase KRas [3]): ≤ 100 nM

Q: With `Cc1cc2c(nc(O[C@@H](C)[C@H]3CCCN3C)c3c(=O)ccn([C@@H]4[C@@H]5CN[C@H]4C5)c32)c(F)c1-c1cccc2c1C(C#N)CCC2` (some centres not stated) as the molecule, how does the IC50 (GTPase KRas [1]) read?
A: Its IC50 is no more than 100 nM.

Q: What about the IC50 (GTPase KRas [2]) of the same molecule?
A: Its IC50 is no more than 100 nM.

Q: And the IC50 (GTPase KRas [3])?
A: Its IC50 is no more than 100 nM.

Q: For `C[C@H](Oc1nc2c(F)c(-c3c[nH]c4ccccc34)c(CCC#N)cc2c2c1NC(=O)CN2C1C2CNC1C2)[C@@H]1CCCN1C` (some centres not stated), which IC50 (GTPase KRas [1]) is on record?
A: The IC50 was no more than 100 nM.

Q: And the IC50 (GTPase KRas [2])?
A: The IC50 was no more than 100 nM.

Q: What about the IC50 (GTPase KRas [3]) of the same molecule?
A: The IC50 was no more than 100 nM.

Q: What does the source list for `C[C@H](Oc1nc2c(F)c(-c3cccc(Cl)c3Cl)c(CCC#N)cc2c2c1c(=O)c(N1CCCC1=O)cn2[C@@H]1[C@@H]2CN[C@H]1C2)[C@H]1CCCN1C`?
A: IC50 (GTPase KRas [1]): ≤ 100 nM; IC50 (GTPase KRas [2]): ≤ 100 nM

Q: Which results are given for `C[C@H](Oc1nc2c(F)c(-c3cccc4ccc(F)cc34)c(CCC#N)cc2c2c1NC(=O)CN2C1C2CNC1C2)[C@@H]1CCCN1C` (some centres not stated)?
A: IC50 (GTPase KRas [1]): ≤ 100 nM; IC50 (GTPase KRas [2]): ≤ 100 nM; IC50 (GTPase KRas [3]): ≤ 100 nM

Q: What does the source list for `C[C@@H](Oc1nc2c(F)c(-c3cc(O)cc4ccccc34)c(CCC#N)cc2c2c1CCCN2C1C2CNC1C2)[C@H]1CCCN1C` (some centres not stated)?
A: IC50 (GTPase KRas [1]): ≤ 100 nM; IC50 (GTPase KRas [2]): ≤ 100 nM; IC50 (GTPase KRas [3]): ≤ 100 nM
